# Measured values taken from paper doi:10.1101/2025.04.16.649181, “Design of peptide-based PAC1 antagonists combining molecular dynamics simulations and a biologically relevant cell-based assay” (bioRxiv, 2025).
# Where two headings read alike, the source gives them in different places. Positions of bridges follow the written chain, without caps; N, C: chain ends. Non-standard residues stand in square brackets, D forms with d. Residues, ends and D or L forms follow the SMILES beside them. No end group written: not given here. Cha = N[C@@H](CC1CCCCC1)C(=O)O
# Molecular target: T1, PAC1 (endogenous, mainly PAC1null, SH-SY5Y) (Homo sapiens, UniProt P41586)
# T1 construct: Neuroblastoma SH-SY5Y cells endogenously xpressing hPAC1 and engineered to express CBS; endogenous in cells
# T1 sequence (P41586 21-468): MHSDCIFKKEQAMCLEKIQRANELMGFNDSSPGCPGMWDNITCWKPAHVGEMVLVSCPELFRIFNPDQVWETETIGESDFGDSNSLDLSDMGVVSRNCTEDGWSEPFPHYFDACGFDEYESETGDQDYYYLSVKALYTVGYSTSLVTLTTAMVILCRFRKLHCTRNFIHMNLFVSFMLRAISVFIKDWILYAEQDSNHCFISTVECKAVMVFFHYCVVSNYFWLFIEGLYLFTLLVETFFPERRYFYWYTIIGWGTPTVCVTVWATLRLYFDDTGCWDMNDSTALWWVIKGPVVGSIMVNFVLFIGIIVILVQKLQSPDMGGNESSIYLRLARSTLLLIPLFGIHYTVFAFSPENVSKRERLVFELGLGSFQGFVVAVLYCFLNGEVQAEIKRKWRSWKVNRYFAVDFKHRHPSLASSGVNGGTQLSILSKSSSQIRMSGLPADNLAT
# Assay: CBS assay, antagonism of P38-induced cAMP in SY5Y_CBS cells
# Type: cell-based
# Settings: for IC50: three independent experiments; for P38-induced cAMP elevation blocked to: 0.2 nM P38, SY5Y_CBS, n = 3
# Description: A single clone of the SH-SY5Y cell line stably expressing a cAMP biosensor (SY5Y_CBS) was generated as previously described for HEK293_CBS and NS-1_CBS cells, using the retroviral vector pLHCX containing the cAMP biosensor and a hygromycin resistance gene. A HEK293_CBS_hPAC1 cell clone was generated by transducing HEK293_CBS cells with the lentiviral vector pLX304 (GeneCopoeia, Rockville, MD) encoding the human PAC1hop (PAC1; GenBank accession no. BC143679) and a blasticidin resistance gene . Following transduction, cells were selected with the appropriate antibiotics (hygromycin or blasticidin) for 2 weeks. Single-cell clones were subsequently isolated by limiting dilution and assessed for PACAP-induced cAMP production using concentration-response assays.
# The cyclic AMP biosensor (CBS) assay was performed using Gibco CO2-independent medium (ThermoFisher, catalog #18045-088). HEK293_CBS_hPAC1 or SY5Y_CBS cells were seeded in 96-well black/clear-bottom plates (MidSci, Fenton, MO) at a density of 6,000 cells per well and incubated overnight. The following day, the medium in each well was aspirated and replaced with fresh medium containing 1.5 mg/mL D-luciferin potassium salt substrate (Gold Biotechnology, St. Louis, MO) and 500 μM isobutyl-1-methylxanthine (IBMX), followed by incubation at 37 °C for 1 hour. Cells were then pre-treated with antagonists for 10 minutes before the addition of agonists (PACAP or forskolin). Plates were incubated at 37 °C for 1 hour, then brought to room temperature and equilibrated for 30 minutes. Luminescence was measured using a GloMax plate reader (Promega, Madison, WI).
# GraphPad Prism ver. 9.0 or 10.0 (GraphPad Software Inc, Boston, MA) was used for data analysis. Concentration response curves were created using a four parameter logistic regression model. EC80 and IC50 parameters were obtained using non-linear regression curve fitting tools. EC80 was calculated as the effective concentration of the agonist required to produce 80% of the maximal response. IC50 was calculated as the concentration of the antagonist that produced 50% of the response induced by an agonist (either PACAP or forskolin) in the absence of the antagonist. Seven or eight different concentrations and three technical replicates per concentration were used for curve fitting. All data are presented as mean ± standard error of the mean (SEM).
# [1] = IC50 against P38 (Figure 9C), 0.2 nM P38, CBS assay, mean ± SEM
# [2] = 0.2 nM P38 (EC80), SY5Y_CBS, mean ± SEM, Figure 11B, read-out: IC50 of P6-38 C-terminal mutants in CBS assay
Compound,IC50 [1],IC50 [2],other results
"CSCC[C@H](NC(=O)[C@H](CCC(N)=O)NC(=O)[C@H](CCCCN)NC(=O)[C@H](CCCNC(=N)N)NC(=O)[C@H](Cc1ccc(O)cc1)NC(=O)[C@H](CCCNC(=N)N)NC(=O)[C@H](CO)NC(=O)[C@H](Cc1ccc(O)cc1)NC(=O)[C@H](CO)NC(=O)[C@H](CC(=O)O)NC(=O)[C@@H](NC(=O)[C@@H](N)Cc1ccccc1)[C@@H](C)O)C(=O)N[C@@H](C)C(=O)N[C@H](C(=O)N[C@@H](CCCCN)C(=O)N[C@@H](CCCCN)C(=O)N[C@@H](Cc1ccc(O)cc1)C(=O)N[C@@H](CC(C)C)C(=O)N[C@@H](C)C(=O)N[C@H]1CCC(=O)NCCCC[C@@H](C(=O)N[C@@H](CCCNC(=N)N)C(=O)N[C@@H](Cc2ccc(O)cc2)C(=O)N[C@@H](CCCCN)C(=O)N[C@@H](CCC(N)=O)C(=O)N[C@@H](CCCNC(=N)N)C(=O)N[C@H](C(=O)N[C@@H](CCCCN)C(=O)N[C@@H](CC(N)=O)C(=O)N[C@@H](CCCCN)C(N)=O)C(C)C)NC(=O)CNC(=O)[C@H](CC(C)C)NC(=O)[C@H](C(C)C)NC1=O)C(C)C [P6-38Lb, (c[E25,K29])P6-38] (H-FTDSYSRYRKQMAVKKYLAEVLGKRYKQRVKNK-NH2; lactam 20-24)",219 ± 28 nM,,
"CSCC[C@H](NC(=O)[C@H](CCC(N)=O)NC(=O)[C@H](CCCCN)NC(=O)[C@H](CCCNC(=N)N)NC(=O)[C@H](Cc1ccc(O)cc1)NC(=O)[C@H](CCCNC(=N)N)NC(=O)[C@H](CO)NC(=O)[C@H](Cc1ccc(O)cc1)NC(=O)[C@H](CO)NC(=O)[C@H](CC(=O)O)NC(=O)[C@@H](NC(=O)[C@@H](N)Cc1ccccc1)[C@@H](C)O)C(=O)N[C@@H](C)C(=O)N[C@H](C(=O)N[C@@H](CCCCN)C(=O)N[C@@H](CCCCN)C(=O)N[C@@H](Cc1ccc(O)cc1)C(=O)N[C@@H](CC1CCCCC1)C(=O)N[C@@H](C)C(=O)N[C@H]1CCC(=O)NCCCC[C@@H](C(=O)N[C@@H](CCCNC(=N)N)C(=O)N[C@@H](Cc2ccc(O)cc2)C(=O)N[C@@H](CCCCN)C(=O)N[C@@H](CCC(N)=O)C(=O)N[C@@H](CCCNC(=N)N)C(=O)N[C@H](C(=O)N[C@@H](CCCCN)C(=O)N[C@@H](CC(N)=O)C(=O)N[C@@H](CCCCN)C(N)=O)C(C)C)NC(=O)CNC(=O)[C@H](CC(C)C)NC(=O)[C@H](C(C)C)NC1=O)C(C)C [P6-38Lbx1, (c[E25,K29], Cha23)P6-38] (H-FTDSYSRYRKQMAVKKY[Cha]AEVLGKRYKQRVKNK-NH2; lactam 20-24)",61 ± 12 nM,,
FTDSYSRYRKQMAVKKYLAAVL-NH2 [P6-27],,,P38-induced cAMP elevation blocked to (P6-27 at 1 μM): 50%; P38-induced cAMP elevation blocked to (until the highest concentration tested (10 μM)): ~ 50%
FTDSYSRYRKQMAVKKYLAAVLG-NH2 [P6-28],,,"IC50 (0.2 nM P38 (EC80), SY5Y_CBS, Figure 11B, read-out: IC50 of P6-38 C-terminal mutants in CBS assay): > 1000 nM"
FTDSYSRYRKQMAVKKYLAAVLGKRYK-NH2 [P6-32],,72 ± 17 nM,
FTDSYSRYRKQMAVKKYLAAVLGKRYKQRVK-NH2 [P6-36],,90 ± 13 nM,
